Drawing on patent publication US20260263593A1, “ALLERGY ANTIGEN AND EPITOPE THEREOF” (HOYU CO., LTD., priority 2018, published 2026), this text covers Epitope cross-reactivity for six substances.

In this experiment the test system is IgE antibodies from patients having allergies to each food. The experiment in a line: Confirmation of epitope cross-reactivity by ELISA with N-terminally biotinylated peptides. It is filed as binding, human. The note with it: serum of allergic patient versus nonallergic subject. The procedure: The binding activity of peptides comprising the amino acid sequences described in the column “Synthesis sequence” and the rightmost column “SEQ ID NO” of Table 3 against IgE antibodies from patients having allergies to each food described in the column “Food with which cross-reactivity was confirmed” in Tables 3-1 to 3-50 was confirmed by ELISA. The peptides were synthesized such that the peptides were N-terminally biotinylated by the Fmoc method.
To be specific, ELISA was carried out according to the following procedure. • (1) The concentrations of the biotinylated peptides were adjusted to 10 μg/mL with PBST (0.1% Tween 20). • (2) Each peptide solution was added at 20 μL to each well of a 384-well plate coated with streptavidin, and shaken at room temperature for one hour. After collection of the solution, the wells were washed with PBS five times. • (3) Pierce Protein-Free (PBS) Blocking Buffer (produced by Thermo) was added at 40 μL thereto and shaken at room temperature for one hour. After removal of the solution, the wells were washed with PBST five times. • (4) 2% serum/Canget SignalSolution I (produced by TOYOBO) was added at 20 μL thereto and shaken at room temperature for one hour. After removal of the solution, the wells were washed with PBST five times. • (5) A diluted secondary antibody solution (1:10000, Canget SignalSolution II (produced by TOYOBO)) was added at 20 μL thereto and shaken at room temperature for one hour. After removal of the solution, the wells were washed with PBST five times. • (6) 1-Step Ultra TMB-ELISA (produced by Thermo) was added at 20 μL thereto and shaken at room temperature for 15 minutes. • (7) 2 M H2SO4 was added at 20 μL thereto. Absorbance at 450 nm was measured.
Peptides having these amino acid sequences were prepared by the same procedure as described in Example 4(A), and the presence or absence of binding thereto of IgE antibodies present in the serum of an allergic patient and the serum of a nonallergic subject was measured. The serum of two nonallergic subjects was measured, and values obtained by dividing the measurement values by an average value thereof were described.
The ordinate of each figure depicts “absorbance of the allergic patient/absorbance of the nonallergic patient (healthy subject)”. Different contrasts of two bar graphs for the same sequences mean separate patients. For example, graph No. 8 and No. 10 in FIG. 7 are results about different patients as to peptides having the same sequences. The names of the cooking ingredients described in each graph are the names of cooking ingredients containing a polypeptide comprising an amino acid sequence serving as the basis of each synthetic sequence used.

Consider “SEQ ID NO: 587: polypeptide consisting of 4 amino acid residues, epitope sequence of polypeptide (E4) (ELEE; VAR_SEQ 1..4 epitope)”, for which the Epitope cross-reactivity entry is on record as “confirmed in many samples”. Take “SEQ ID NO: 593: polypeptide consisting of 4 amino acid residues, epitope sequence of polypeptide (E4) (TLLEPE; VAR_SEQ 1..6 epitope)”: the Epitope cross-reactivity entry is “confirmed in many samples”. Then “SEQ ID NO: 595: polypeptide consisting of 4 amino acid residues, epitope sequence of polypeptide (E5) (MEEL; VAR_SEQ 1..4 epitope)”, with “confirmed in many samples”; and “SEQ ID NO: 636: polypeptide consisting of 4 amino acid residues, epitope sequence of polypeptide (E9) (SQKE; VAR_SEQ 1..4 epitope)”, with “confirmed in many samples”; and “SEQ ID NO: 655: polypeptide consisting of 4 amino acid residues, epitope sequence of polypeptide (E11) (KNAK; VAR_SEQ 1..4 epitope)”, with “confirmed in many samples”.

With “SEQ ID NO: 662: polypeptide consisting of 4 amino acid residues, epitope sequence of polypeptide (E11) (NAKR; VAR_SEQ 1..4 epitope)”, the Epitope cross-reactivity result is “confirmed in many samples”.
